Data on 10 compounds can be found in the supplement of paper PMC4862054.

What all share (assay): normalised response (% of control), CellTiter-Glo; higher = more viable cells (100 = DMSO, 0 = benzethonium chloride kill control)
Common to all, as to details: incubation time: 72 h
(In general: ATP-based viability assays read luminescence as a measure of living cells.)

The subject of experiment [1] is DU-4475. The essentials: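 The table gives the normalised signal for a single concentration in each entry. Breast cancer cell lines were seeded (20 µl suspension) into 384-well plates holding compound at 5 concentrations in 10-fold steps over a compound-specific 10,000-fold range and incubated 72 h, then read for CellTox Green fluorescence (485/520 nm) and CellTiter-Glo luminescence. Normalisation on each plate used 0.1 % DMSO (100) and a positive kill control (0).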

A further experiment concerns MDA-MB-231. On the procedure:
(§1)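 DSRT, 72 h incubation, CellTox Green / CellTiter-Glo readout. Signal is normalised to DMSO and benzethonium chloride controls. Value is the normalised response at the highest dose.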

Another experiment has as its system MDA-MB-436. On the procedure: as §1
A further experiment has as its system SK-BR-3. On the procedure:
as §1

A further experiment relates to MDA-MB-453. As to the method: as §1
The test system of the next experiment is HDQ-P1. On the procedure: as §1
The next experiment relates to MFM-223. As to the method: as §1
The test system of another experiment is HCC1599. As to the method: as §1
Experiment [2] concerns DU-4475. As to the method: as §1
The source holds these as a separate data set.

The test system of a further experiment is BT-549. On the procedure:
as §1

The next experiment concerns Hs578T. On the procedure: as §1
In another experiment the test system is MDA-MB-468. On the procedure:
as §1

In the next experiment the test system is CAL-120. As to the method:
as §1

Another experiment relates to BT-474. As to the method:
as §1

Another experiment deals with CAL-51. On the procedure:
as §1

Another experiment has as its system HCC1937. As to the method:
as §1

For the next experiment, the system named is CAL-85-1. As to the method:
as §1

A further experiment concerns HCC1143. On the procedure:
as §1

`Cc1c(N)nc([C@H](CC(N)=O)NC[C@H](N)C(N)=O)nc1C(=O)N[C@H](C(=O)N[C@H](C)[C@@H](O)[C@H](C)C(=O)N[C@H](C(=O)NCCc1nc(-c2nc(C(=O)NCCC[S+](C)C)cs2)cs1)[C@@H](C)O)[C@@H](OC1OC(CO)C(O)C(O)C1OC1OC(CO)C(O)C(OC(N)=O)C1O)c1cnc[nH]1` (stereo not given in full) [Bleomycin] (1000 nM) yielded a normalised response in the experiment on DU-4475 [1] of 92.1%.
As to `Cc1c(N)nc([C@H](CC(N)=O)NC[C@H](N)C(N)=O)nc1C(=O)N[C@H](C(=O)N[C@H](C)[C@@H](O)[C@H](C)C(=O)N[C@H](C(=O)NCCc1nc(-c2nc(C(=O)NCCC[S+](C)C)cs2)cs1)[C@@H](C)O)[C@@H](OC1OC(CO)C(O)C(O)C1OC1OC(CO)C(O)C(OC(N)=O)C1O)c1cnc[nH]1` (stereo not given in full) [Bleomycin] (10000 nM), the normalised response in the experiment on MDA-MB-231 is 74.8%; with MDA-MB-436 it was 39.1%; in the experiment with SK-BR-3, 67.4%; with MDA-MB-453, 124%; in the experiment with HDQ-P1, 78.5%; with MFM-223 it was 108%. Further, the normalised response in the experiment with HCC1599 worked out at 88.7%; in the experiment on DU-4475 [2] it was 78.9%; in the experiment with BT-549, 32.6%; with Hs578T, 69.6%; with MDA-MB-468, 48.8%; in the experiment with CAL-120 it was 80.9%. The normalised response in the experiment on BT-474 is 65.3%; in the experiment on CAL-51 it was 37.9%; in the experiment with HCC1937, 45.8%; with CAL-85-1, 64.3%; with HCC1143, 48.5%.
Regarding `Cc1cc2c(F)c(Oc3ncnn4cc(OC[C@@H](C)O)c(C)c34)ccc2[nH]1` [Brivanib] (100 nM), the normalised response in the experiment on DU-4475 [1] turned out to be 101%.
On to `Cc1cc2c(F)c(Oc3ncnn4cc(OC[C@@H](C)O)c(C)c34)ccc2[nH]1` [Brivanib] (1000 nM), for which the normalised response worked out at 104% in the experiment with MDA-MB-231; 112% with MDA-MB-436; 113% with SK-BR-3; 108% in the experiment with MDA-MB-453; 97.7% with HDQ-P1; 110% with MFM-223. For the same compound, the normalised response was found to be 104% in the experiment with HCC1599; 103% with DU-4475 [2]; 98.3% with BT-549; 101% with Hs578T; 107% in the experiment on MDA-MB-468; 112% in the experiment on CAL-120. In addition, the normalised response with BT-474 came to 108%; in the experiment on CAL-51 it was 83%; with HCC1937 it was 95.1%; in the experiment on CAL-85-1, 93.4%; in the experiment with HCC1143 it was 100%.
With `CCCCCOC(=O)Nc1nc(=O)n([C@@H]2O[C@H](C)[C@@H](O)[C@H]2O)cc1F` [Capecitabine] (1000 nM), in the experiment with DU-4475 [1], the normalised response was found to be 98.6%.
Regarding `CCCCCOC(=O)Nc1nc(=O)n([C@@H]2O[C@H](C)[C@@H](O)[C@H]2O)cc1F` [Capecitabine] (10000 nM), the normalised response is 100% in the experiment on MDA-MB-231; 78.6% in the experiment on MDA-MB-436; 74.5% with SK-BR-3; 103% with MDA-MB-453; 81.3% in the experiment on HDQ-P1; 102% with MFM-223. For the same compound, the normalised response in the experiment on HCC1599 came to 90.4%; in the experiment with DU-4475 [2] it was 90.7%; in the experiment on BT-549, 108%; in the experiment with Hs578T it was 105%; in the experiment with MDA-MB-468 it was 104%; in the experiment on CAL-120 it was 98.5%. Also, the normalised response in the experiment with BT-474 stood at 95.3%; in the experiment with CAL-51, 107%; with HCC1937, 107%; in the experiment on CAL-85-1, 56%; in the experiment on HCC1143, 92.8%.
The compound `CC(C)C[C@H](NC(=O)[C@H](CCc1ccccc1)NC(=O)CN1CCOCC1)C(=O)N[C@@H](Cc1ccccc1)C(=O)N[C@@H](CC(C)C)C(=O)[C@@]1(C)CO1` [Carfilzomib] (100 nM) came in with a normalised response in the experiment with DU-4475 [1] of 14.6%.
Consider `CC(C)C[C@H](NC(=O)[C@H](CCc1ccccc1)NC(=O)CN1CCOCC1)C(=O)N[C@@H](Cc1ccccc1)C(=O)N[C@@H](CC(C)C)C(=O)[C@@]1(C)CO1` [Carfilzomib] (1000 nM), for which the normalised response with MDA-MB-231 turned out to be 0.28%; with MDA-MB-436, 2.1%; in the experiment with SK-BR-3 it was 2.94%; in the experiment with MDA-MB-453, 14.3%; in the experiment with HDQ-P1, 0.05%; in the experiment on MFM-223, 6.19%. The normalised response is 8.99% in the experiment with HCC1599; 7.95% in the experiment with DU-4475 [2]; 2.23% in the experiment with BT-549; 0.58% with Hs578T; 1.29% in the experiment with MDA-MB-468; 1.88% with CAL-120. Besides, the normalised response in the experiment on BT-474 came to 6.38%; in the experiment on CAL-51, 1.12%; with HCC1937 it was 2.47%; with CAL-85-1, 1.03%; with HCC1143, 5.78%.
In the case of `Nc1nc(Cl)nc2c1ncn2[C@@H]1O[C@H](CO)[C@@H](O)[C@@H]1F` [Clofarabine] (1000 nM), the normalised response in the experiment with DU-4475 [1] stood at 70.9%.
As for `Nc1nc(Cl)nc2c1ncn2[C@@H]1O[C@H](CO)[C@@H](O)[C@@H]1F` [Clofarabine] (10000 nM), the normalised response in the experiment on MDA-MB-231 came out at 73%; in the experiment with MDA-MB-436 it was 21.4%; in the experiment on SK-BR-3 it was 36.8%; in the experiment on MDA-MB-453, 75.3%; in the experiment with HDQ-P1, 73.7%; in the experiment on MFM-223, 92.3%. Also, the normalised response in the experiment with HCC1599 turned out to be 29.1%; in the experiment on DU-4475 [2] it was 49.3%; in the experiment on BT-549, 27.4%; with Hs578T, 68.2%; with MDA-MB-468, 16.4%; in the experiment on CAL-120 it was 69.8%. In addition, the normalised response in the experiment on BT-474 is 66.3%; in the experiment with CAL-51, 17%; in the experiment with HCC1937, 84.2%; in the experiment with CAL-85-1, 35.4%; in the experiment on HCC1143, 40.3%.
